Several values for one entry are separate records, joined by “and”; a condition that tells them apart may be missing. Identical values can stand only once. Counter-ions that a name gives are not always drawn. Like-named read-outs stand apart in the source and are kept apart here.
Columns and labels:
[1] = cited from earlier work
M. tuberculosis = test: FPTB plaque assay after exposure to CB-18 with carry-over into the infection buffer (Example 3); assay type: cell-based, Mycobacterium tuberculosis; conditions: 1 mM CB-18, 90 minutes at 37° C.; replicates 1-3, tubes a, b
Protocol: To examine the effects of both exposing M. tuberculosis to CB-18, and having CB-18 carried over into the infection buffer, the following experiment was performed: A 0.5 MacFarland stock of M. tuberculosis was manufactured as described by Thornton, C. G., et al, Jour. Clin. Microbiol. 36:2004-2013 (1998), and a 0.5 ml portions were transferred to quadruplicate 50 ml conical tubes (FIG. 3). One pair of tubes simply contained 50 mM Tris-HCl pH 7.5 @ 25° C., 66 mM NaCl, and 0.025% NALC, while the other pair of tubes contained the same buffer supplemented with 1 mM CB-18. All tubes were incubated for 90 minutes at 37° C. and then diluted with sterile water to a final volume of 50 ml. In those tubes without CB-18 present, duplicate 250 μl portions were added directly to 1 ml of FPTB nutrient broth. From those tubes that contained CB-18, triplicate 250 μl portions were added to 50 mM Tris-HCl pH 7.5 @ 25° C., 66 mM NaCl, 2 mM CaCl2 buffer. All tubes were then immediately subjected to analysis using the FPTB plaque assay (i.e., the plaque assay was performed without pre-culture).

[2] = tested on: Mycobacterium tuberculosis ATCC 27294; test: FASTPlaqueTB (FPTB) plaque assay after timed exposure of M. tuberculosis to CB-18 (Example 1); assay type: cell-based; conditions: for Plaque formation following infection in Tris buffer and no pre-culture / Plaque formation following overnight pre-culture in FPTB nutrient broth: duplicates a, b
Protocol: In an effort to establish the effect of exposure to CB-18 on the M. tuberculosis type strain ATCC 27294, and any relationship of such an effect to time, the following experiment was performed using the FASTPlaqueTB™ (FPTB) assay manufactured by Biotec Laboratories Ltd (Ipswich, Suffolk, U.K.): A 0.5 MacFarland stock of M. tuberculosis was manufactured as described by Thornton, C. G., et al, Jour. Clin. Microbiol. 36:2004-2013 (1998), and a 1 ml portion were transferred to a 50 ml conical tubes containing 50 mM Tris-HCl pH 7.5 @ 25° C., 66 mM NaCl, 1 mM CB-18, and 0.025% N-acetyl-L-cysteine (NALC). From this tube was taken duplicate 500 μl aliquots at 0, 30, 60, 120, and 180 minutes and immediately serially diluted 400-fold to form two dilution series. In the first series (FIG. 1a), serial dilutions were made in nutrient broth (i.e., FPTB broth) provided by the manufacturer. In the second series (FIG. 1b), serial dilutions were made in a 50 mM Tris-HCl pH 7.5 @ 25° C., 66 mM NaCl buffer that had been supplemented with calcium chloride (CaCl2) to a final concentration of 2 mM.
The first series of time point-dilutions were then incubated at 37° C. overnight in FPTB broth prior to being assayed with the FPTB plaque assay. The second series of time point-dilutions were immediately subjected to analysis using the FPTB plaque assay.

[3] = tested on: M. tuberculosis type strain ATCC 27294; conditions: cited from earlier work
[4] = tested on: Mycobacterium tuberculosis ATCC 27294; test: FPTB plaque assay with CB-18 present during infection (Example 2); assay type: cell-based; conditions: for Plaque formation following infection in Tris buffer and no pre-culture / Plaque formation following overnight pre-culture in FPTB nutrient broth: duplicates a, b; for Concentration present during infection that does not interfere with the assay: M. tuberculosis ATCC 27294
[5] = tested on: mycobacteriophage D-29 in M. tuberculosis; conditions: cited from earlier work
[6] = 1 mM CB-18, time of exposure 0 min
[7] = 1 mM CB-18, time of exposure 30 min
[8] = 1 mM CB-18, time of exposure 60 min
[9] = 1 mM CB-18, time of exposure 120 min
[10] = 1 mM CB-18, time of exposure 180 min

NC(=O)CNCCS(=O)(=O)O [ACES, N-(2-Acetamido)-2-aminoethanesulfonic acid]
pKa [1]: 6.78

NC(=O)CN(CC(=O)O)CC(=O)O [ADA, N-(2-Acetamido)iminodiacetic acid]
pKa [1]: 6.59

CCCCCCCCCCCCCCCCCC[N+](C)(C)CCCC(=O)[O-] [CB-18, N-(3-carboxypropyl)-N,N-dimethyl-1-octadecanaminium, inner salt]
Plaque formation following processing in CB-18, no pre-culture, and infection in Tris-CaCl2 buffer (M. tuberculosis): >300
Plaque formation following infection in Tris buffer and no pre-culture [2, 6]: 132 and 121
Plaque formation following overnight pre-culture in FPTB nutrient broth [2, 6]: >300
Plaque formation following infection in Tris buffer and no pre-culture [2, 7]: 145 and 167
Plaque formation following overnight pre-culture in FPTB nutrient broth [2, 7]: >300
Plaque formation following infection in Tris buffer and no pre-culture [2, 8]: 100 and 90
Plaque formation following overnight pre-culture in FPTB nutrient broth [2, 8]: >300
Plaque formation following infection in Tris buffer and no pre-culture [2, 9]: 155 and 140
Plaque formation following overnight pre-culture in FPTB nutrient broth [2, 9]: >300
Plaque formation following infection in Tris buffer and no pre-culture [2, 10]: 213 and 221
Plaque formation following overnight pre-culture in FPTB nutrient broth [2, 10]: >300
Effect of exposure on D-29 mycobacteriophage plaque assay ([2]; 1 mM CB-18 for 30, 60, 120, and 180 minutes): no deleterious effects
Growth characteristics in culture media ([3]; CB-18 present at 20 μg/ml in the culture media): significantly affected
Tuberculocidal activity ([3]; time-dependent killing): has tuberculocidal activity
Plaque formation following infection in Tris buffer and no pre-culture ([4]; CB-18 5 μg/ml present during infection): 171 and 191
Plaque formation following overnight pre-culture in FPTB nutrient broth ([4]; CB-18 5 μg/ml): >300
Plaque formation following infection in Tris buffer and no pre-culture ([4]; CB-18 10 μg/ml present during infection): 204 and 186
Plaque formation following overnight pre-culture in FPTB nutrient broth ([4]; CB-18 10 μg/ml): >300
Plaque formation following infection in Tris buffer and no pre-culture ([4]; CB-18 20 μg/ml present during infection): 181 and 198
Plaque formation following overnight pre-culture in FPTB nutrient broth ([4]; CB-18 20 μg/ml): >300
Plaque formation following overnight pre-culture in FPTB nutrient broth ([4]; CB-18 40 μg/ml): >300
Concentration present during infection that does not interfere with the assay [4]: ≤ 20 µg/mL
Concentration present during infection that does not interfere with the assay ([4]; conversion of 20 μg/ml): ≤ 52 µM

O=S(=O)(O)CCCCN1CCN(CCO)CC1 [HEPBS, N-(2-Hydroxyethyl)piperazine-N′-(4-butanesulfonic acid)]
pKa [1]: 8.30

O=S(=O)(O)CCCCN1CCOCC1 [MOBS, 4-(N-Morpholino)butanesulfonic acid]
pKa [1]: 7.60

O=S(=O)(O)CCN1CCN(CCS(=O)(=O)O)CC1 [PIPES, piperazine-1,4-bis(2-ethanesulfonic acid)]
pKa [1]: 6.76

O=S(=O)(O)CC(O)CN1CCN(CC(O)CS(=O)(=O)O)CC1 (stereo not shown) [POPSO, piperazine-N,N′-bis(2-hydroxypropanesulfonic acid)]
pKa [1]: 7.80

CCCCCCCC/C=C\CCCCCCCC(=O)OCCOCC(OCCO)C1OCC(OCCO)C1OCCO (stereo not shown) [Tween 80]
Concentration above which propagation of mycobacteriophage D-29 in M. tuberculosis is interfered with [5]: above 0.0012%
Concentration above which propagation of mycobacteriophage D-29 in M. tuberculosis is interfered with ([5]; printed as conversion of […]): > 1 EM

— US20070269843A1, “Diagnostic Assays That Use Mycobacteriophages” (priority 2004, published 2007)
